The pEC50 is the EC50 on a negative log10 scale, so that one unit is a factor of ten.

Structures are written as SMILES. pEC50: −log10 of the molar value.

One assay relates to PERK−/− MEF cells. The assay can be described thus: Rescue from tunicamycin-induced apoptosis in PERK−/− MEFs. To be noted: Tun. The class given is cell-based. The protocol:
STHdh^Q111/111 cells (used before[13]) or PERK+/+ or PERK−/− MEFs (kindly provided by David Ron, Univ. Cambridge) were incubated with Tun (10 μg/ml) for 48 h, which results in ER stress-induced cell death. Cells under the same conditions were incubated for the same times, together with Tun, with increasing concentrations of the different PERK modulators (0–120 μM) and the percent of apoptotic cells was measured by FACS cell cycle progression using propidium iodide (PI), considering the fraction beneath G0/G1. The relative apoptosis rate was calculated to be able to compare between compounds and experiments, where for each concentration curve the percent of apoptotic cells was considered 100 at concentration 0 of the PERK modulator, with only Tun. The graphs show the average relative apoptosis rate of at least 3 independent experiments for each compound.
Cells were washed with PBS and fixed with cold methanol. Before FACS analysis cells were washed with PBS, followed by addition of propidium iodide (PI) solution (10 μg/ml) and analysis by flow cytometry. Cells in sub-G0/G1 were counted as apoptotic/ dead.

Another assay concerns CHOP mRNA. The assay can be described thus: CHOP mRNA by qPCR in STHdh^Q7/7 and STHdh^Q111/111 cells. Type of assay: cell-based, murine. To be noted: both cell types, qPCR vs GAPDH. As for the experimental part: (§1) Total cell RNA was extracted with TRIzol reagent (Invitrogen) according to the manufacturer's instructions. Reverse transcription (RT) was performed with QuantaBio qScript cDNA synthesis kit. Real-time qPCR was carried out using a CFX Connect Real-Time PCR Detection System (BioRad) and the amplifications were done using the SYBR Green PCR Master Mix (pcrbio). Reactions were run in triplicates in three independent experiments. Housekeeping gene GAPDH was used as an internal control to normalize the variability of expression levels.
For orientation: In qPCR the cycle at which signal appears reflects the starting amount.

A further assay deals with HMOX1 mRNA. The assay is described as follows: HMOX1 mRNA (downstream target of NRF2-P) by qPCR. The class given is cell-based, murine. To be noted: STHdh^Q7/7 and STHdh^Q111/111 cells. The protocol: as §1
Suppl. Fig. S5. NRF2 activation but not involvement in cell protection by MK-28. A)
Scheme of NRF2 activation by PERK. B) qPCR of HMOX1, a downstream target of NR F2.
Medians +- interquartile range of 3 independent experiments . P values of STHdhQ7/7 MK 5µM […]
presence of Tun and the indicated concentrations of MK-28, plus increasing concentrations of the NRF2 inhibitor ML385. Average of 3 independent experiments +-SD. D) Apoptosis of STHdhQ111/111 cells treated only with increasing concentrations of ML385. Average of 3 independent experiments +-SD.
(1 picture or pasted object on this page, not shown here)

The target of another assay is T1, PERK (EIF2AK3) (Homo sapiens, UniProt Q9NZJ5).
T1 construct: GST; purchased Life technologies, Carlsbad, CA; host or cells: insect cells
T1 sequence (Q9NZJ5 536-1116): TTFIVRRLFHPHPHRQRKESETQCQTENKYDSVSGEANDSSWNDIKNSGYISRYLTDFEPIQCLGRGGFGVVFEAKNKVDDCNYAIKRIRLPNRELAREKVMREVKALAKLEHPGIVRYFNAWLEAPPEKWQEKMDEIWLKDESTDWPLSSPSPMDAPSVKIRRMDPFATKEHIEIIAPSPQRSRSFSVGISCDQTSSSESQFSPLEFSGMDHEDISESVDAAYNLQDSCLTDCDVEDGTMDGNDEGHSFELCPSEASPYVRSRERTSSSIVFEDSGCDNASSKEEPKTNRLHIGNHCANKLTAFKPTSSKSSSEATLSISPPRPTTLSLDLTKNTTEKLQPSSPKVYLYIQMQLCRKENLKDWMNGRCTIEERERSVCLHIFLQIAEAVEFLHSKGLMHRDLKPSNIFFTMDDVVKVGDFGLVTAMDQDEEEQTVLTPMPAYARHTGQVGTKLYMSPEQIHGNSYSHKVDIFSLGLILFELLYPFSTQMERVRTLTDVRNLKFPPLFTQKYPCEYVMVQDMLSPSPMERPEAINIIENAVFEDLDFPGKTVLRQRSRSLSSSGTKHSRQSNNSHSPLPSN
The assay is described as follows: In vitro HotSpot kinase assay on isolated PERK. Type of assay: biochemical. To be noted: isolated PERK, 1 μM ATP; read-out: EC50 of PERK activation. The protocol: In vitro kinase assays with purified components and full kinase panel analysis was done at Reaction Biology Corp. (Malvern, PA, USA) using the HotSpot Kinase Assay. Reactions were performed for 20 min at room temp. using ^33P-ATP (Specific activity 10 μCi/μl) with 1 μM total ATP, 20 μM substrate and kinases in the nanomolar range in 20 mM Hepes (pH 7.5), 10 mM MgCl2, 1 mM EGTA, 0.02% Brij35, 0.02 mg/ml BSA, 0.1 mM Na3VO4, 2 mM DTT, 1% DMSO and other required factors depending on the assayed kinase.

The test system of a further assay is R6/2 HD mouse model. The assay can be described thus: Combined phenotype score (hind limb clasping, ledge, gait, kyphosis). The class given is in vivo, mice. To be noted: R6/2 TG, 1 mg/kg subcutaneous 28 days. As for the experimental part: […]. Measures include hind limb clasping, ledge test, gait and kyphosis. See detailed information in Supplementary methods.
Group # Animals # Treatment Volume bleeding and
Determination of MK-28 levels in the plasma and brain were performed by LC/MS/MS using
generic methods in the bioanalytical lab of WuXi AppTec Co., Ltd. (Shanghai, China). The
MK-28 concentrations were determined in the plasma and whole perfused brain tissues of the
animals following a single IP injection of 10 mg/kg.
Combined phenotype: A method assessing a combination of different disease -phenotypes
was used to evaluate disease progression. Phenotypic evaluation includes hind-limb
clasping, ledge test, gait and kyphosis. Limb clasping: hind-limb clasping behavior was
evaluated and different scores were given based on their performance on a scale from 0 to 3: 0
= normal; 1 = clasps hind-limb s within 30s of being suspended in the air; 2 = cla sps hind-limb s
within 5s, recovering when released after 30s; 3 = clasps hind-limbs within 5s and has difficulty
recovering when released after 30s. Ledge test: The ledge test evaluates motor coordination by
placing mice on the ledge of the cage. Typically, mice will walk along the ledge and attempt
to descend back into the cage. Walking without losing balance is considered normal and
assigned a score of 0. A score of 1 is given if the mouse misse s its footing while walking. If […]

With `CN(/N=C\c1ccc(O)c(O)c1)c1nc(-c2ccccc2)cc(-c2ccccc2)n1` [MK-28], the “protection from ER stress-induced cell death” value in the assay with PERK−/− MEF cells is “failed to protect”. The “increase of CHOP mRNA levels” value in the assay with CHOP mRNA is “up to 10 fold”. The “HMOX1 mRNA levels” value in the assay on HMOX1 mRNA is reported as “upregulation”. Moreover, on PERK (EIF2AK3), the pEC50 is 6.31. The composite phenotype score is recorded as 3.14 ± 1.41 in the assay with R6/2 HD mouse model (week 6) and 4.4 ± 0.55 in the assay with R6/2 HD mouse model (week 8).

Values taken from paper PMC7181660, “A novel specific PERK activator reduces toxicity and extends survival in Huntington's disease models” (Scientific Reports, 2020).
